The values that follow come from PubChem BioAssay (NCI).

Among the test systems are A498 renal; HCC-2998 colon; HCT-15 colon; HL-60(TB) leukemia; IGROV1 ovarian; OVCAR-3 ovarian; OVCAR-4 ovarian; SK-MEL-5 melanoma; SNB-75 CNS; U251 CNS.
Common to all, as to experiment: NCI-60 cell line screen, 48 h

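Compound exposure: 48 hours, 5 concentrations, 96-well plates. GI50 is the concentration that inhibits growth by half. TGI marks complete inhibition of growth.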

In the case of `CC1=C(C(=O)Nc2ccccc2C)C(/C=C/c2ccccc2)C(C(=O)Nc2ccccc2C)=C(C)N1`, the TGI with A498 renal, in the experiment on HCC-2998 colon, with HCT-15 colon, in the experiment on HL-60(TB) leukemia, in the experiment with IGROV1 ovarian and with OVCAR-3 ovarian was more than 100 µM in each case. Further, the TGI in the experiment with OVCAR-4 ovarian, in the experiment on SK-MEL-5 melanoma, with SNB-75 CNS and in the experiment on U251 CNS was more than 100 µM in each case.

For the compound `C=CCO/N=C/c1cc(NC(=S)c2ccoc2C)ccc1Cl`, the TGI with A498 renal is 58.6 µM; in the experiment on HCC-2998 colon, 24 µM; in the experiment on HCT-15 colon it was 23.8 µM; with HL-60(TB) leukemia it was 46 µM; in the experiment with IGROV1 ovarian, 32.2 µM; with OVCAR-3 ovarian, 24.3 µM. The TGI with OVCAR-4 ovarian turned out to be 20.6 µM; in the experiment on SK-MEL-5 melanoma, 27.6 µM; in the experiment on SNB-75 CNS, 38.2 µM; in the experiment on U251 CNS it was 60.6 µM.

As for `CCOC(=O)c1ccc(N[C@@H]2c3cc4c(cc3C(C3=CC(=O)C(=O)C(OC)=C3)[C@H]3C(=O)OCC32)OCO4)cc1` (some centres undefined), the TGI is 13 µM in the experiment on A498 renal; 10.9 µM with HCC-2998 colon; 7.82 µM in the experiment on HCT-15 colon; more than 19.7 µM in the experiment with HL-60(TB) leukemia; 28.5 µM in the experiment with IGROV1 ovarian; 31.7 µM in the experiment with OVCAR-3 ovarian. Further, the TGI was more than 83 µM in the experiment on OVCAR-4 ovarian, 11.7 µM in the experiment on SK-MEL-5 melanoma, 9.04 µM in the experiment with SNB-75 CNS and 4.77 µM with U251 CNS.

In the case of `COc1ccccc1/C=C/C(=O)/C=C/c1ccccc1O`, the GI50 in the experiment with A498 renal was 1.8 µM; in the experiment on HCC-2998 colon, 1.29 µM; in the experiment with HCT-15 colon it was 0.351 µM; in the experiment on HL-60(TB) leukemia, 0.323 µM; in the experiment with IGROV1 ovarian, 0.344 µM; in the experiment with OVCAR-3 ovarian it was 0.314 µM. In addition, the GI50 in the experiment on OVCAR-4 ovarian was 1.17 µM; in the experiment on SK-MEL-5 melanoma it was 1.46 µM; in the experiment with SNB-75 CNS, 0.964 µM; with U251 CNS it was 0.326 µM. In addition, the TGI in the experiment with A498 renal is 3.32 µM; in the experiment with HCC-2998 colon, 2.64 µM; in the experiment on HCT-15 colon it was 1.64 µM; in the experiment on IGROV1 ovarian, 1.92 µM; with OVCAR-3 ovarian it was 1 µM; with OVCAR-4 ovarian, 8.83 µM. Also, the TGI in the experiment with SK-MEL-5 melanoma was 2.78 µM; in the experiment on SNB-75 CNS, 2.57 µM; with U251 CNS it was 1.28 µM.
